Results reported in ChEMBL document CHEMBL1201862, “PubChem BioAssay data set” (2004).
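Cells were grown in 96-well plates and exposed to each compound for 48 hours at five concentrations; endpoints were interpolated linearly between bracketing concentrations, or set to the highest concentration if not reached. GI50 marks 50% less growth.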 Calls of active or inactive are those of the source. Rule as the data show it: active = GI50 up to about 1.1 µM and inactive = higher.

Key:
Assay in all cases: NCI tumour cell line growth inhibition, 48 h
[1] = system: 786-0
[2] = system: ACHN
[3] = system: CCRF-CEM
[4] = system: EKVX
[5] = system: HCT-116
[6] = system: KM12
[7] = system: LOX IMVI
[8] = system: M14
[9] = system: MDA-MB-435
[10] = system: NCI-H460
[11] = system: NCI-H522
[12] = system: OVCAR-3
[13] = system: SF-295
[14] = system: SN12C
[15] = system: SR
[16] = system: T47D
[17] = system: TK-10
[18] = system: UACC-257
[19] = system: UO-31
[20] = system: HL-60

Measured: GI50

COC(=O)C1=C(C)NC(C)=C(C(=O)OC)C1c1cccc(NO)c1
inactive: [1] 15 µM | [2] 12.8 µM | [3] 3.79 µM | [4] 22.2 µM | [5] 13 µM | [6] 15.9 µM | [7] 16 µM | [8] 18.9 µM | [9] 16.8 µM | [10] 15.1 µM | [11] 7 µM | [12] 16 µM | [13] 25.9 µM | [14] 18.5 µM | [15] > 100 µM | [16] 13.5 µM | [17] 14.2 µM | [18] 14.4 µM | [19] 11.5 µM

CN(C)c1ccc(C2CC(=O)CC(c3ccc(N(C)C)cc3)C23C(=O)NC(=S)NC3=O)cc1 (centres undefined)
inactive: [1] 54.6 µM | [2] > 100 µM | [3] > 100 µM | [4] 55.5 µM | [5] > 100 µM | [20] > 100 µM | [6] > 100 µM | [7] > 100 µM | [8] > 100 µM | [9] > 100 µM | [10] > 100 µM | [12] > 100 µM | [13] 57.9 µM | [14] > 100 µM | [15] > 100 µM | [16] > 100 µM | [17] > 100 µM | [18] > 100 µM | [19] > 100 µM

CN(C)CCO/N=C1/C=C2CC[C@H]3[C@@H]4CC[C@H](O)[C@@]4(C)CC[C@@H]3[C@@]2(C)CC1
inactive: [1] 8.85 µM | [2] 15.4 µM | [3] 6.89 µM | [4] 15.6 µM | [5] 10.5 µM | [6] 10.8 µM | [7] 15.9 µM | [8] 8.26 µM | [9] 3.49 µM | [10] 7.11 µM | [11] 1.67 µM | [12] 16.6 µM | [13] 13.9 µM | [14] 11.7 µM | [15] 5.55 µM | [16] 23.9 µM | [17] 11.1 µM | [18] 12.9 µM | [19] 12.3 µM

C[n+]1c(-c2ccc(/C=N/Nc3ccnc(N/N=C/c4ccc(-c5cn6ccccc6[n+]5C)cc4)n3)cc2)cn2ccccc21
inactive: [1] 47.2 µM | [2] 25.3 µM | [4] > 100 µM | [5] 20.7 µM | [20] 24.5 µM | [6] 32.6 µM | [8] 31.2 µM | [9] > 10 µM | [10] 31.3 µM | [11] > 100 µM | [13] 17.9 µM | [14] > 100 µM | [15] 59.4 µM | [16] 54.8 µM | [17] 41.8 µM | [18] 24.2 µM | [19] 21.2 µM
